Holding throughout (type): cell-based, mouse
Data set [1] deals with day 17 EB derived hepatocyte lineage cells (ES cell line D3). The data set can be described thus: Glycogen storage. Details: key to Glycogen: A (+) represents at least one time point of significant expression or secretion function in the three conditions.; A (−) represents functions which were absent on all experimental days.
Data set [2] shares this test system. The data set can be described thus: In situ indirect immunofluorescent cytokeratin-18 analysis. Details: key to CK18: A (+) represents at least one time point of significant expression or secretion function in the three conditions.; A (−) represents functions which were absent on all experimental days. The protocol:
(§1) In order to induce differentiation, cells were suspended in Iscove's modified Dulbecco's medium (Gibco) containing 20% fetal bovine serum (Gibco), 4 mM L-glutamine (Gibco), 100 U/ml penicillin, 100 U/ml streptomycin (Gibco), 10 ug/ml gentamicin (Gibco). Embryoid bodies were formed and cultured for two days using the hanging drop method (1×10^3 ES cells per 30 ul drop). Hanging drops where transferred to suspension culture in 100 mm petri dishes and cultured for an additional 2 days. The EB's were then plated, one EB per well, in 6 well tissue culture polystyrene plates (BD-Biosciences) for an additional 14 days. For secondary culture day 17 EBs cells were detached following incubation with 0.5 ml of trypsin (Gibco) for three minutes, resulting in a single cell suspension, and subsequently the addition of IMDM media. Cells from day 17 EB's were used because it has been observed that hepatocyte function is greatest on day 17. Cells were then re-plated in 6 well tissue culture polystyrene (BD-Biosciences) at an initial seeding density of 5×10^4 day 17 cells per well for further analysis. Culture medium was changed every forty eight hours. When OSM and SNAP were supplemented, 10 ng/ml OSM and 250 μM SNAP were added to the culture medium. […]

For data set [3] the test system is unchanged. The data set can be described thus: Cell number / proliferation in secondary culture. The settings on record: collagen sandwich configuration, within 10 days. The protocol: as §1, with “media.” for “media. Cells from day 17 EB's were used because it has been observed that hepatocyte function is greatest on day 17. Cells were then re-plated in 6 well tissue culture polystyrene (BD-Biosciences) at an initial seeding density of 5×10^4 day 17 cells per well for further analysis. Culture medium was changed every forty eight hours. When OSM and SNAP were supplemented, 10 ng/ml OSM and 250 μM SNAP were added to the culture medium.”
Therefore, cultures were established to study the maintenance and augmentation of hepatocyte like function previously observed after 17 days of spontaneous EB mediated differentiation. Hepatocyte lineage maintenance was initially assessed by examining the dynamics of cell growth following removal of cells from their primary EB culture and re-plating into tissue culture polystyrene. 5×10^4 cells from day 17 EB cultures were re-plated into one well of a six well plate and evaluated on days 4, 6, 8 and 10 days post re-plating. […]

Data set [4] shares this test system. The data set can be described thus: Sandwich ELISA for detection of albumin secretion. Details: key to ALB Secretion: A (+) represents at least one time point of significant expression or secretion function in the three conditions.; A (−) represents functions which were absent on all experimental days. The protocol: as §1, with “17.” for “17. Cells were then re-plated in 6 well tissue culture polystyrene (BD-Biosciences) at an initial seeding density of 5×10^4 day 17 cells per well for further analysis. Culture medium was changed every forty eight hours. When OSM and SNAP were supplemented, 10 ng/ml OSM and 250 μM SNAP were added to the culture medium.”
In order to detect secreted albumin within the media supernatants obtained on each of the analysis days, we used a commercially available mouse albumin ELISA kit (Bethyl Laboratories, #E90-134). […] Absorbance readings were obtained using a Biorad (Hercules, Calif.) Model 680 plate reader with a 450 nm emission filter. Albumin values were normalized to the cell number recorded on the day of media sample collection.

For data set [5] the test system is unchanged. Kind of data set: In situ indirect immunofluorescent intracellular albumin analysis. Details: key to Intracellular ALB: A (+) represents at least one time point of significant expression or secretion function in the three conditions.; A (−) represents functions which were absent on all experimental days. The protocol: as §1, with “medium. When collagen sandwich culture was used, rat tail type I collagen (BD-Biosciences) gels were prepared by distributing 350 μL of collagen gel solution (3 parts 1.33×DMEM, pH 7.4, and 1 part collagen solution at 4 mg/mL, chilled on ice and mixed immediately prior to use) evenly over one well of a six well plate (BD-Biosciences) and incubated at 37° C. for at least one hour before use. 5×10^5 cells were seeded in 2 mL of IMDM media on day 0 and an additional 350 μL of collagen gel solution was distributed over the cells after 1 day of culture. Therefore, the second layer of collagen is added on day 1 of secondary culture protocol. One hour of incubation at 37° C. was allowed for gelation and attachment of the second gel layer before the medium was replaced. Culture medium was changed every forty eight hours.” for “medium.”

Data set [6] has the same test system. The data set can be described thus: Cytochrome P450 activity (resorufin o-dealkylase, BROD/MROD). Details: key to CYP450: A (+) represents at least one time point of significant expression or secretion function in the three conditions.; A (−) represents functions which were absent on all experimental days. The method, then: On evaluation days 4, 6, 8 and 10 days in secondary culture, cells were re-plated into 12 well plates. 3-Methylcholanthrene was used at a concentration of 2 μM (Sigma-Aldrich) for 48 hours prior to the addition of resorufin as an inducer of cytochrome P450 activities. Cytochrome P450-dependent resorufin o-dealkylase activity (BROD, PROD, EROD, and MROD) was measured using resorufin substrates namely pentoxy-, benzyloxy-, ethoxy-, and methoxyresorufin from a Resorufin Sampler Kit (Invitorgen, Carlsbad, Calif.). […] The fluorescence of the plate was measured using a fluorescence plate reader (DTX880, Beckman Coltour, Fullerton, Calif., ext. 530 nm and emis. 590 nm) at the end of min incubation. A standard curve of resorufin fluorescence was constructed using concentrations ranging from 1 to 1,000 nmol in EBSS. […] The constructed standard curve was used to convert the fluorescence values obtained from the plate reader to nanomoles of resorufin. Rate of formation of resorufin, as calculated from the early linear increase in the fluorescence curve, was defined as cytochrome P450 activity and expressed as nmol/min.
Cytochrome P450 enzymes play a key role in detoxifying xenobiotics and were used in these studies to asses hepatocyte function. […] BROD and MROD activity can be determined from the enzymatic conversion of resorufin.

The test system is the same in data set [7]. Kind of data set: Urea secretion. Details: key to Urea: A (+) represents at least one time point of significant expression or secretion function in the three conditions.; A (−) represents functions which were absent on all experimental days. The protocol:
as §1, with “analysis.” for “analysis. Culture medium was changed every forty eight hours. When OSM and SNAP were supplemented, 10 ng/ml OSM and 250 μM SNAP were added to the culture medium.”
Media samples were collected on all analysis days. […] Absorbance readings were obtained using a Biorad (Hercules, Calif.) Model 680 plate reader with a 585 nm emission filter. Urea values were normalized to the cell number recorded on the day of media sample collection.

The mark [8] stands for this setting: polystyrene culture, OSM or SNAP supplemented.
[9] abbreviates: polystyrene secondary culture, 10 ng/ml OSM or 250 μM SNAP, days 4-10.

The values that follow come from patent US20110014260A1, “SYSTEM AND METHOD FOR LIVER CELL CULTURE AND MATURATION” (priority 2007, published 2011).

With Oncostatin-M [OSM], the glycogen storage entry in data set [1] (setting [8]) is on record as “not detected at any level”. Further, the Glycogen entry in data set [1] (setting [9]) is “−”. In data set [2] (setting [8]), the CK18 expression entry was “not detected at any level”. Moreover, in data set [2] (setting [9]), the CK18 result is “−”. Besides, the “cell number reached from 5×10^4 Day 17 cells” value in data set [3] is 1×10^6 cells. Also, the albumin secretion entry in data set [4] (setting [8]) is given as “not detected at any level”. Besides, in data set [4] (setting [9]), the “ALB Secretion” value is listed as “−”. In data set [5] (collagen sandwich culture, 10 days post re-plating), the “albumin expression (percentage of cells expressing albumin)” value amounted to 80%. Moreover, the “Intracellular ALB” value in data set [5] (setting [9]) is recorded as “+”. Further, the “Time for which ALB expression was maintained” value in data set [5] (polystyrene secondary/tertiary culture, supplemented, SNAP at a lower level) is reported as “up to eight”. In addition, in data set [6] (setting [8]), the CYP450 mediated detoxification entry is “not detected at any level”. For the same substance, the CYP450 entry in data set [6] (setting [9]) is listed as “−”. Moreover, in data set [7] (polystyrene culture, supplemented), the “Urea secretion time course” value is “greatest at day eight”. The Urea result in data set [7] (setting [9]) is listed as “+”.
